# Test results: US20260250626A1, “LACTOBACILLUS SALIVARIUS STRAINS AND USES THEREOF” (CHEMO RESEARCH, S.L., priority 2022, published 2026)
# Values joined by “and” are separate entries in the source; they are usually repeats but may differ in a detail not shown here. Equal entries are not always repeated. Where two headings read alike, the source gives them in different places.
# How the values were obtained:
# L. salivarius MP98 = assay: Sensitivity to antibiotics by E-test (MIC); assay type: cell-based, Ligilactobacillus salivarius; parameters: MIC value: unit not given here
# [1] = Recurrent gout trial: gout episodes and intake of gout-related drugs; assay type: in vivo, human; details: control group (allopurinol), individual patients 1-15
# [2] = Recurrent gout trial: oxidative stress (OS)-related parameters and NOx in plasma; assay type: in vivo, human
# [3] = Recurrent gout trial: blood biochemical parameters (uric acid, lipids, transaminases); assay type: in vivo, human
# [4] = human, in vivo; cited from earlier work
# [5] = drug intake recorded through the study
# [6] = control group (allopurinol), individual patients 1-15, plasma, after finishing the study
# [7] = control group, before starting the study, individual patients 1-15
# [8] = control group, before starting the study, individual patients 1-15, normalized per mg protein
# [9] = control group, before starting the study, individual patients 1-15, plasma concentration (µmol/L)
# [10] = control group (allopurinol), individual patients 1-15, serum, after finishing the study
# [11] = MIC of the antibiotic to L. salivarius MP98, E-test
molecule,measurement,setting,value
"NC[C@H]1O[C@H](O[C@H]2[C@H](O)[C@@H](O[C@H]3O[C@H](CO)[C@@H](O)[C@H](N)[C@H]3O)[C@H](N)C[C@@H]2N)[C@H](O)[C@@H](O)[C@@H]1O [KAN, kanamycin]",MIC,"L. salivarius MP98; Ligilactobacillus salivarius, MIC of the antibiotic to L. salivarius MP98",128 µg/mL
Oc1ncnc2[nH]ncc12 [allopurinol],Gout episodes (during study period),[1],0 (2×) and 1 (8×) and 2 (4×) and 3
same,Gout episodes (9 previous months),[1]; 9 months before the study (baseline),1 (5×) and 2 (8×) and 0 and 3
same,Doses Allopurinol,[1]; [5],180 (4×) and 175 (2×) and 174 (2×) and 168 and 178 and 179 (2×) and 172 and 176 and 177
same,Doses Colchicin,[1]; [5],0 (2×) and 4 (6×) and 8 (3×) and 2 (2×) and 12 and 6
same,Doses ibuprofen and similar AINS,[1]; [5],0 (2×) and 8 and 12 (2×) and 6 (4×) and 16 and 4 (2×) and 1 and 3 (2×)
same,8-isoprostaglandin Fzs,[2]; [6],166.1 pg/mL and 162.9 pg/mL and 205.9 pg/mL and 164.8 pg/mL and 175.0 pg/mL and 192.4 pg/mL and 204.7 pg/mL and 165.2 pg/mL and 205.1 pg/mL and 207.1 pg/mL and 195.9 pg/mL and 164.5 pg/mL and 186.3 pg/mL and 191.9 pg/mL and 175.8 pg/mL
same,AOPPs,[2]; [6],54.87 µmol/L and 57.96 µmol/L and 66.12 µmol/L and 58.27 µmol/L and 62.35 µmol/L and 64.76 µmol/L and 60.56 µmol/L and 57.71 µmol/L and 65.70 µmol/L and 63.68 µmol/L and 60.94 µmol/L and 59.37 µmol/L and 61.97 µmol/L and 64.14 µmol/L and 59.82 µmol/L
same,AOPPs (nmol/mg protein),[2]; [6],0.72 nmol/mg protein and 0.75 nmol/mg protein (2×) and 0.83 nmol/mg protein (2×) and 0.76 nmol/mg protein (2×) and 0.78 nmol/mg protein (2×) and 0.80 nmol/mg protein (2×) and 0.77 nmol/mg protein and 0.82 nmol/mg protein and 0.81 nmol/mg protein (2×)
same,MDA,[2]; [6],1.78 μmol/L and 1.83 μmol/L and 2.37 μmol/L and 1.84 μmol/L (2×) and 2.14 μmol/L and 2.09 μmol/L and 1.81 μmol/L (2×) and 2.29 μmol/L and 2.22 μmol/L and 2.01 μmol/L and 1.74 μmol/L and 2.27 μmol/L and 2.08 μmol/L
same,NOx,[2]; [6],21.32 µmol/L and 19.26 µmol/L and 23.87 µmol/L and 22.75 µmol/L and 21.13 µmol/L and 24.97 µmol/L and 24.59 µmol/L and 22.33 µmol/L and 26.43 µmol/L and 28.07 µmol/L and 24.07 µmol/L and 24.81 µmol/L and 25.79 µmol/L and 25.95 µmol/L and 22.68 µmol/L
same,Nitrate,[2]; [6],16.92 µmol/L and 16.86 µmol/L and 28.79 µmol/L and 19.85 µmol/L and 21.04 µmol/L and 23.87 µmol/L and 22.81 µmol/L and 17.40 µmol/L and 26.73 µmol/L and 27.47 µmol/L and 22.10 µmol/L and 17.49 µmol/L and 21.36 µmol/L and 25.27 µmol/L and 20.31 µmol/L
same,Nitrite,[2]; [6],1.82 µmol/L and 1.87 µmol/L and 2.29 µmol/L and 1.67 µmol/L and 2.03 µmol/L and 2.24 µmol/L and 2.27 µmol/L and 1.84 µmol/L and 2.02 µmol/L and 2.22 µmol/L and 2.19 µmol/L and 1.77 µmol/L and 2.26 µmol/L and 2.20 µmol/L and 1.88 µmol/L
same,SH groups,[2]; [6],429.5 µmol/L and 423.6 µmol/L and 448.1 µmol/L and 429.7 µmol/L and 435.4 µmol/L and 430.2 µmol/L and 431.0 µmol/L and 426.3 µmol/L and 451.8 µmol/L and 436.7 µmol/L and 436.1 µmol/L and 433.4 µmol/L and 436.8 µmol/L and 432.7 µmol/L and 431.3 µmol/L
same,SH groups (nmol/mg protein),[2]; [6],5.19 nmol/mg protein and 5.21 nmol/mg protein and 5.72 nmol/mg protein and 5.41 nmol/mg protein (2×) and 5.42 nmol/mg protein and 5.36 nmol/mg protein and 5.23 nmol/mg protein and 6.02 nmol/mg protein and 5.59 nmol/mg protein and 5.48 nmol/mg protein and 5.47 nmol/mg protein and 5.43 nmol/mg protein and 5.74 nmol/mg protein and 5.52 nmol/mg protein
same,TBARM,[2]; [6],22.89 µmol/L and 23.48 µmol/L and 29.92 µmol/L and 27.01 µmol/L and 27.83 µmol/L and 27.59 µmol/L and 29.04 µmol/L and 25.67 µmol/L and 25.91 µmol/L and 28.75 µmol/L and 26.32 µmol/L and 24.81 µmol/L and 27.09 µmol/L and 28.27 µmol/L and 24.86 µmol/L
same,8-isoprostaglandin F2α,[2]; [7],161.7 pg/mL and 209.0 pg/mL and 162.6 pg/mL and 177.1 pg/mL and 195.2 pg/mL and 207.3 pg/mL and 160.9 pg/mL and 202.4 pg/mL and 207.5 pg/mL and 194.8 pg/mL and 166.1 pg/mL and 184.9 pg/mL and 195.7 pg/mL and 174.4 pg/mL and 162.2 pg/mL
same,MDA,[2]; [7],1.86 μmol/L and 2.41 μmol/L (2×) and 1.78 μmol/L and 2.02 μmol/L and 1.99 μmol/L and 1.92 μmol/L and 1.79 μmol/L and 2.17 μmol/L and 2.09 μmol/L and 1.83 μmol/L and 2.19 μmol/L and 2.00 μmol/L and 1.87 μmol/L and 1.74 μmol/L
same,NOx,[2]; [7],19.01 µmol/L and 18.98 µmol/L and 25.67 µmol/L and 21.48 µmol/L and 21.66 µmol/L and 25.18 µmol/L and 24.07 µmol/L and 20.01 µmol/L and 28.23 µmol/L and 27.09 µmol/L and 25.56 µmol/L and 22.29 µmol/L and 26.86 µmol/L and 24.48 µmol/L and 23.16 µmol/L
same,Nitrate,[2]; [7],16.85 µmol/L and 16.77 µmol/L and 31.12 µmol/L and 19.64 µmol/L and 22.48 µmol/L and 23.99 µmol/L and 20.29 µmol/L and 16.93 µmol/L and 27.46 µmol/L and 28.65 µmol/L and 20.92 µmol/L and 17.03 µmol/L and 22.52 µmol/L and 24.81 µmol/L and 20.02 µmol/L
same,Nitrite,[2]; [7],1.73 μmol/L and 1.81 μmol/L and 2.41 μmol/L and 1.79 μmol/L and 2.12 μmol/L and 2.11 μmol/L (2×) and 2.06 μmol/L and 1.71 μmol/L and 2.14 μmol/L (2×) and 2.27 μmol/L and 1.84 μmol/L and 2.21 μmol/L and 1.92 μmol/L
same,TBARM,[2]; [7],22.93 µmol/L and 31.02 µmol/L and 24.76 µmol/L and 26.91 µmol/L and 28.14 µmol/L and 27.31 µmol/L and 24.97 µmol/L and 27.28 µmol/L and 27.99 µmol/L and 27.43 µmol/L and 23.07 µmol/L and 28.11 µmol/L and 28.00 µmol/L and 25.79 µmol/L and 23.16 µmol/L
same,AOPPs,[2]; [8],0.74 nmol/mg protein and 0.83 nmol/mg protein and 0.75 nmol/mg protein (2×) and 0.78 nmol/mg protein and 0.81 nmol/mg protein (2×) and 0.77 nmol/mg protein (2×) and 0.73 nmol/mg protein (2×) and 0.84 nmol/mg protein and 0.82 nmol/mg protein and 0.79 nmol/mg protein and 0.80 nmol/mg protein
same,SH groups,[2]; [8],5.23 nmol/mg protein and 5.84 nmol/mg protein and 5.37 nmol/mg protein and 5.44 nmol/mg protein and 5.45 nmol/mg protein and 5.39 nmol/mg protein and 5.11 nmol/mg protein and 6.10 nmol/mg protein and 5.54 nmol/mg protein and 5.59 nmol/mg protein and 5.42 nmol/mg protein and 5.48 nmol/mg protein and 5.79 nmol/mg protein and 5.51 nmol/mg protein and 5.14 nmol/mg protein
same,AOPPs,[2]; [9],57.87 µmol/L and 65.77 µmol/L and 59.02 µmol/L and 62.29 µmol/L and 64.83 µmol/L and 60.36 µmol/L and 58.95 µmol/L and 65.81 µmol/L and 63.52 µmol/L and 61.07 µmol/L and 59.50 µmol/L and 61.92 µmol/L and 64.34 µmol/L and 59.71 µmol/L and 55.91 µmol/L
same,SH groups,[2]; [9],425.7 μmol/L and 442.0 μmol/L and 427.9 μmol/L and 441.5 μmol/L and 432.7 μmol/L (2×) and 433.9 μmol/L and 425.9 μmol/L and 448.3 μmol/L and 434.9 μmol/L (2×) and 438.4 μmol/L and 435.1 μmol/L and 432.2 μmol/L and 426.6 μmol/L
same,GOT (UI/L),[3]; [10],20.05 UI/L and 22.63 UI/L and 37.84 UI/L and 37.28 UI/L and 33.57 UI/L and 27.60 UI/L and 37.24 UI/L and 21.94 UI/L and 40.68 UI/L and 41.07 UI/L and 39.21 UI/L and 31.82 UI/L and 32.99 UI/L and 38.57 UI/L and 32.42 UI/L
same,GPT (UI/L),[3]; [10],19.97 UI/L and 27.46 UI/L and 44.90 UI/L and 27.61 UI/L (2×) and 43.27 UI/L and 53.45 UI/L and 34.73 UI/L and 27.08 UI/L and 59.99 UI/L and 53.87 UI/L and 35.57 UI/L and 39.40 UI/L and 44.47 UI/L and 33.84 UI/L
same,Total cholesterol,[3]; [10],172.63 mg/dL and 176.04 mg/dL and 206.72 mg/dL and 196.82 mg/dL and 183.24 mg/dL and 194.32 mg/dL and 176.47 mg/dL and 170.51 mg/dL and 224.95 mg/dL and 199.08 mg/dL and 193.84 mg/dL and 181.94 mg/dL and 178.63 mg/dL and 187.14 mg/dL and 183.02 mg/dL
same,Triglycerides,[3]; [10],157.81 mg/dL and 153.17 mg/dL and 169.90 mg/dL and 158.47 mg/dL and 165.58 mg/dL and 164.25 mg/dL and 162.81 mg/dL and 165.45 mg/dL and 189.72 mg/dL and 171.63 mg/dL and 154.57 mg/dL and 165.16 mg/dL and 163.83 mg/dL and 160.02 mg/dL and 168.91 mg/dL
same,Uric acid,[3]; [10],7.11 mg/dl and 7.46 mg/dl and 9.68 mg/dl and 8.87 mg/dl and 7.64 mg/dl and 9.61 mg/dl and 8.69 mg/dl and 7.90 mg/dl and 10.92 mg/dl and 10.87 mg/dl and 9.12 mg/dl (2×) and 8.57 mg/dl and 10.49 mg/dl and 9.38 mg/dl
same,"any parameter, T1 against T2 samples","[3]; control group, 100-300 mg/daily for one year",no differences in any parameter
same,GOT,[3]; [7],20.94 UI/L and 24.52 UI/L and 38.57 UI/L and 36.71 UI/L and 35.83 UI/L and 25.11 UI/L and 35.37 UI/L and 21.62 UI/L and 42.75 UI/L and 40.28 UI/L and 37.01 UI/L and 30.17 UI/L and 34.88 UI/L and 39.64 UI/L and 30.53 UI/L
same,GPT,[3]; [7],19.32 UI/L and 25.75 UI/L and 47.78 UI/L and 29.19 UI/L and 42.81 UI/L and 55.07 UI/L and 30.64 UI/L and 25.55 UI/L and 54.98 UI/L and 49.91 UI/L and 37.56 UI/L and 30.07 UI/L and 40.39 UI/L and 45.29 UI/L and 30.37 UI/L
same,Total cholesterol,[3]; [7],170.45 mg/dl and 179.39 mg/dl and 208.16 mg/dl and 195.37 mg/dl (2×) and 188.31 mg/dl and 192.43 mg/dl and 177.63 mg/dl and 169.04 mg/dl and 229.46 mg/dl and 197.18 mg/dl and 184.41 mg/dl and 176.25 mg/dl and 184.30 mg/dl and 185.19 mg/dl
same,Triglycerides,[3]; [7],152.07 mg/dL and 151.28 mg/dL and 172.29 mg/dL and 155.83 mg/dL and 166.74 mg/dL and 162.41 mg/dL and 168.02 mg/dL and 162.33 mg/dL and 187.99 mg/dL and 172.25 mg/dL and 160.86 mg/dL and 162.25 mg/dL and 167.27 mg/dL and 162.91 mg/dL and 168.28 mg/dL
same,Uric acid,[3]; [7],7.03 mg/dl and 7.53 mg/dl and 9.97 mg/dl and 8.44 mg/dl (2×) and 7.56 mg/dl and 9.99 mg/dl and 7.81 mg/dl and 10.64 mg/dl and 11.69 mg/dl and 9.20 mg/dl and 8.24 mg/dl and 10.05 mg/dl and 9.92 mg/dl and 9.06 mg/dl
same,patients in gout therapy achieving serum urate levels <6 mg/dl (<0.35 mmol/L),[4],20-40%
Cc1nc(-c2ccc(OCC(C)C)c(C#N)c2)sc1C(=O)O [febuxostat],patients in gout therapy achieving serum urate levels <6 mg/dl (<0.35 mmol/L),[4],45-67%
gentamycin,MIC value,L. salivarius MP98; [11],2
penicillin,MIC value,L. salivarius MP98,0.25
virginiamycin,MIC value,L. salivarius MP98; [11],0.25
